According to patent publication US20230346670A1, “Prebiotic Oral Care Compositions and Methods” (Colgate-Palmolive Company, priority 2020, published 2023):

Columns and labels:
Assay type in all cases: cell-based
multi-species biofilms = assay: Organic acid levels in supernatant of multi-species biofilms (ion chromatography); conditions: >0 production, <0 consumption, n = 3
Protocol: (§1) Biofilms are grown vertically on Calcium Deficient Hydroxyapatite (CAD-HA) disks (Hitemco Medical, Old Bethpage, USA) using the Amsterdam Active Adhesion model. Biofilms are allowed to establish during 24 h (37° C., 170 rpm) under microaerophilic conditions (6% O2, 7% CO2, 7% H2, 80% N2). After this 24 h, disks are rinsed 3 times a day for 3 minutes (RT, 250 rpm), for 3 consecutive days, by transferring the lid containing the disks to a new 24-well plate containing 2 mL/well of the appropriate substrate solution. As a negative control, PBS (pH 5.7) without substrate supplementation is used.
Levels of organic acids in the filter sterilized supernatant of the multi-species biofilms are measured using a 761 Compact Ion Chromatograph (Metrhohm, Switzerland) with a Metrosep Organic acids Guard/4.6 guard column. The supernatants from the substrate-treated multi-species biofilms are analyzed to gain more insight into the influence of the substrates on organic acid consumption/production.

V. parvula = assay: Multi-species biofilm composition, absolute abundance (Geq/mL); conditions: repeated rinsing
Protocol: as §1
(§2) N-acetyl-D-glucosamine (NADG), α-D-lactose, D-(+)-trehalose and D-(+)-raffinose are selected to determine their effects on multi-species biofilm composition. […] decrease in absolute numbers in at least four of the pathogenic bacterial species tested in the assay, in comparison to the control, the results of which are described in Table 1 below. Note, NADG decreased absolute numbers of S. sobrinus. Absolute abundances of bacterial species are shown as mean ± SD (n = 3) logarithmic values of the genome equivalents per millilitre (log(Geq/mL)).

F. nucleatum = assay: as above; conditions: repeated rinsing
Protocol: as §1, §2

A. viscosus = assay: as above; conditions: repeated rinsing
Protocol: as §1, §2

S. sanguinis = assay: as above; conditions: repeated rinsing
Protocol: as §1, §2

S. mutans = assay: as above; conditions: repeated rinsing
Protocol: as §1, §2

S. salivarius = assay: as above; conditions: repeated rinsing
Protocol: as §1, §2

S. oralis = assay: as above; conditions: for absolute abundance of S. oralis, mean ± SD log (Geq/mL): repeated rinsing
Protocol: as §1
(§3) N-acetyl-D-glucosamine (NADG), α-D-lactose, D-(+)-trehalose and D-(+)-raffinose are selected to determine their effects on multi-species biofilm composition. Repeated rinsing of the biofilms with the substrates at a concentration of 1 M results in a significant decrease in absolute numbers in at least four of the pathogenic bacterial species tested in the assay, in comparison to the control, the results of which are described in Table 1 below. Note, NADG decreased absolute numbers of S. sobrinus. Absolute abundances of bacterial species are shown as mean ± SD (n = 3) logarithmic values of the genome equivalents per millilitre (log(Geq/mL)).

S. sobrinus = assay: as above; conditions: repeated rinsing
Protocol: as §1, §3

S. mitis = assay: as above; conditions: repeated rinsing
Protocol: as §1, §3

A. actinomycetemcomitans = assay: as above; conditions: repeated rinsing
Protocol: as §1, §3

S. gordonii = assay: as above; conditions: repeated rinsing
Protocol: as §1, §3

P. intermedia = assay: as above; conditions: repeated rinsing
Protocol: as §1, §3

A. naeslundii = assay: as above; conditions: repeated rinsing
Protocol: as §1, §3

P. gingivalis = assay: as above; conditions: repeated rinsing
Protocol: as §1, §3

[1] = tested on: P. intermedia virulence genes; assay: Virulence gene expression in multi-species biofilm (SYBR RT-qPCR); conditions: for fold change in DnaJ expression, geometric mean (95% C.I.) / fold change in DnaK expression, geometric mean (95% C.I.) / fold change in ECF expression, geometric mean (95% C.I.) / fold change in GroES expression, geometric mean (95% C.I.) / fold change in HtpG expression, geometric mean (95% C.I.) / fold change in KpsD expression, geometric mean (95% C.I.) / fold change in adpc expression, geometric mean (95% C.I.) / fold change in clpB expression, geometric mean (95% C.I.) / fold change in inpA expression, geometric mean (95% C.I.) / fold change in phg expression, geometric mean (95% C.I.): relative to control = 1
Protocol: as §1
The virulence of the substrate-treated multi-species biofilms are evaluated by analyzing the relative expression of 33 genes that are recognized as being related to some form of virulence and from 4 periodontal pathogens.
Expression of bacterial virulence genes is analyzed through SYBR RT-qPCR and normalized for bacterial housekeeping gene expression. […] These effects are illustrated in Tables 6a and 6b:
Note, for Table 6d, fold changes in virulence gene expression are determined relatively to the control condition through the 2^^-ΔΔCt method and are shown as the geometric mean (C.I.) (n = 3) of the 2^^-ΔΔCt values. All substrates are dissolved in PBS at a concentration of 1 M (upper part) or 1%(w/v) (lower part). Values between 0 and 1 represent relative downregulation, values >1 represent relative upregulation. […] NADG: N-acetyl-D-glucosamine; C.I.: 95% confidence interval.

[2] = substrate 1 M, listed as D-(+)-raffinose
[3] = lower part of Table 6d, head prints 1 M (lower part 1%(w/v))
[4] = upper part of Table 6d, substrate 1 M, n = 3

OC[C@H]1O[C@H](OC[C@H]2O[C@H](O[C@]3(CO)O[C@H](CO)[C@@H](O)[C@@H]3O)[C@H](O)[C@@H](O)[C@@H]2O)[C@H](O)[C@@H](O)[C@H]1O [D-raffinose, D-(+)-raffinose]
acetate level in biofilm supernatant, mean ± SD (multi-species biofilms; substrate 1% (w/v)): 380 ± 23 mg/L | butyrate level in biofilm supernatant, mean ± SD (multi-species biofilms; substrate 1% (w/v)): 2003 ± 81 mg/L | formate level in biofilm supernatant, mean ± SD (multi-species biofilms; substrate 1% (w/v)): 3748 ± 197 mg/L | lactate level in biofilm supernatant, mean ± SD (multi-species biofilms; substrate 1% (w/v)): -125 ± 0 mg/L | propionate level in biofilm supernatant, mean ± SD (multi-species biofilms; substrate 1% (w/v)): 2033 ± 48 mg/L | acetate level in biofilm supernatant, mean ± SD (multi-species biofilms; substrate 1 M): 2640 ± 154^∗ mg/L | butyrate level in biofilm supernatant, mean ± SD (multi-species biofilms; substrate 1 M): 154 ± 26^∗ mg/L | formate level in biofilm supernatant, mean ± SD (multi-species biofilms; substrate 1 M): 344 ± 25^∗ mg/L | lactate level in biofilm supernatant, mean ± SD (multi-species biofilms; substrate 1 M): 971 ± 43^∗ mg/L | propionate level in biofilm supernatant, mean ± SD (multi-species biofilms; substrate 1 M): 4178 ± 105^∗ mg/L | acetate level in biofilm supernatant, mean ± SD (multi-species biofilms; [2]): 2640 ± 154 mg/L | butyrate level in biofilm supernatant, mean ± SD (multi-species biofilms; [2]): 154 ± 26 mg/L | lactate level in biofilm supernatant, mean ± SD (multi-species biofilms; [2]): 971 ± 43 mg/L | propionate level in biofilm supernatant, mean ± SD (multi-species biofilms; [2]): 4178 ± 105 mg/L | absolute abundance of V. parvula (VP), mean ± SD log (Geq/mL) (V. parvula; substrate 1% (w/v)): 9.83 ± 0.09 log (Geq/mL) | absolute abundance of V. parvula (VP), mean ± SD log (Geq/mL) (V. parvula; substrate 1 M in PBS, n = 3): 9.88 ± 0.07 log (Geq/mL) | absolute abundance of F. nucleatum (Fn), mean ± SD log (Geq/mL) (F. nucleatum; substrate 1% (w/v)): 9.40 ± 0.10 log (Geq/mL) | absolute abundance of F. nucleatum (Fn), mean ± SD log (Geq/mL) (F. nucleatum; substrate 1 M in PBS, n = 3): 6.73 ± 0.06^∗ log (Geq/mL) | absolute abundance of A. viscosus (Av), mean ± SD log (Geq/mL) (A. viscosus; substrate 1% (w/v)): 7.77 ± 0.14 log (Geq/mL) | absolute abundance of A. viscosus (Av), mean ± SD log (Geq/mL) (A. viscosus; substrate 1 M in PBS, n = 3): 7.08 ± 0.59 log (Geq/mL) | absolute abundance of S. sanguinis, mean ± SD log (Geq/mL) (S. sanguinis; substrate 1% (w/v)): 8.56 ± 0.11 log (Geq/mL) | absolute abundance of S. sanguinis, mean ± SD log (Geq/mL) (S. sanguinis; substrate 1 M in PBS, n = 3): 6.39 ± 0.51 log (Geq/mL) | absolute abundance of S. mutans, mean ± SD log (Geq/mL) (S. mutans; substrate 1% (w/v)): 7.46 ± 0.16 log (Geq/mL) | absolute abundance of S. mutans, mean ± SD log (Geq/mL) (S. mutans; substrate 1 M in PBS, n = 3): 8.24 ± 0.17^∗ log (Geq/mL) | absolute abundance of S. salivarius, mean ± SD log (Geq/mL) (S. salivarius; substrate 1% (w/v)): 2.65 ± 0.00 log (Geq/mL) | absolute abundance of S. salivarius, mean ± SD log (Geq/mL) (S. salivarius; substrate 1 M in PBS, n = 3): 6.29 ± 0.21^∗ log (Geq/mL) | decrease in S. oralis numbers in comparison to the control (S. oralis; substrate 1% (w/v)): ~ 0.9 log(Geq/mL) | absolute abundance of S. oralis, mean ± SD log (Geq/mL) (S. oralis; substrate 1% (w/v)): 5.98 ± 0.18^∗ log (Geq/mL) | absolute abundance of S. oralis, mean ± SD log (Geq/mL) (S. oralis; substrate 1 M in PBS, n = 3): 8.52 ± 0.17^∗ log (Geq/mL) | absolute abundance of S. sobrinus, mean ± SD log (Geq/mL) (S. sobrinus; substrate 1% (w/v)): 5.36 ± 0.20 log (Geq/mL) | absolute abundance of S. sobrinus, mean ± SD log (Geq/mL) (S. sobrinus; substrate 1 M in PBS, n = 3): 7.06 ± 0.15 log (Geq/mL) | absolute abundance of S. mitis, mean ± SD log (Geq/mL) (S. mitis; substrate 1% (w/v)): 2.65 ± 0.00 log (Geq/mL) | absolute abundance of S. mitis, mean ± SD log (Geq/mL) (S. mitis; substrate 1 M in PBS, n = 3): 3.58 ± 1.31 log (Geq/mL) | absolute abundance of A. actinomycetemcomitans (Aa), mean ± SD log (Geq/mL) (A. actinomycetemcomitans; substrate 1% (w/v)): 9.14 ± 0.12 log (Geq/mL) | absolute abundance of A. actinomycetemcomitans (Aa), mean ± SD log (Geq/mL) (A. actinomycetemcomitans; substrate 1 M in PBS, n = 3): 8.30 ± 0.29^∗ log (Geq/mL) | absolute abundance of S. gordonii, mean ± SD log (Geq/mL) (S. gordonii; substrate 1% (w/v)): 8.12 ± 0.06 log (Geq/mL) | absolute abundance of S. gordonii, mean ± SD log (Geq/mL) (S. gordonii; substrate 1 M in PBS, n = 3): 8.93 ± 0.31 log (Geq/mL) | absolute abundance of P. intermedia (Pi), mean ± SD log (Geq/mL) (P. intermedia; substrate 1% (w/v)): 7.83 ± 0.32 log (Geq/mL) | absolute abundance of P. intermedia (Pi), mean ± SD log (Geq/mL) (P. intermedia; substrate 1 M in PBS, n = 3): 5.21 ± 0.77^∗ log (Geq/mL) | absolute abundance of A. naeslundii (An), mean ± SD log (Geq/mL) (A. naeslundii; substrate 1% (w/v)): 7.62 ± 0.08 log (Geq/mL) | absolute abundance of A. naeslundii (An), mean ± SD log (Geq/mL) (A. naeslundii; substrate 1 M in PBS, n = 3): 5.32 ± 0.25^∗ log (Geq/mL) | absolute abundance of P. gingivalis (Pg), mean ± SD log (Geq/mL) (P. gingivalis; substrate 1% (w/v)): 6.94 ± 0.21 log (Geq/mL) | absolute abundance of P. gingivalis (Pg), mean ± SD log (Geq/mL) (P. gingivalis; substrate 1 M in PBS, n = 3): 4.59 ± 0.45^∗ log (Geq/mL) | fold change in DnaJ expression, geometric mean (95% C.I.) [1, 3]: 1.56 (0.59-4.12) fold | fold change in DnaK expression, geometric mean (95% C.I.) [1, 3]: 1.76 (0.61-5.06) fold | fold change in ECF expression, geometric mean (95% C.I.) [1, 3]: 0.96 (0.56-1.64) fold | fold change in GroES expression, geometric mean (95% C.I.) [1, 3]: 0.98 (0.24-4.05) fold | fold change in HtpG expression, geometric mean (95% C.I.) [1, 3]: 0.67 (0.43-1.04) fold | fold change in KpsD expression, geometric mean (95% C.I.) [1, 3]: 0.90 (0.58-1.40) fold | fold change in adpc expression, geometric mean (95% C.I.) [1, 3]: 0.85 (0.23-3.13) fold | fold change in clpB expression, geometric mean (95% C.I.) [1, 3]: 1.13 (0.86-1.48) fold | fold change in inpA expression, geometric mean (95% C.I.) [1, 3]: 0.98 (0.64-1.52) fold | fold change in phg expression, geometric mean (95% C.I.) [1, 3]: 0.73 (0.33-1.63) fold | impact on P. intermedia virulence gene expression ([1]; substrate 1% (w/v)): limited impact | downregulation of P. intermedia virulence gene expression ([1]; substrate 1 M): 3 fold | fold change in DnaJ expression, geometric mean (95% C.I.) [1, 4]: 1.76 (0.92-3.37) fold | fold change in DnaK expression, geometric mean (95% C.I.) [1, 4]: 10.07 (6.81-14.89)^∗ fold | fold change in ECF expression, geometric mean (95% C.I.) [1, 4]: 6.74 (1.96-23.20)^∗ fold | fold change in GroES expression, geometric mean (95% C.I.) [1, 4]: 10.59 (4.96-22.60)^∗ fold | fold change in HtpG expression, geometric mean (95% C.I.) [1, 4]: 1.90 (0.99-3.67)^∗ fold | fold change in KpsD expression, geometric mean (95% C.I.) [1, 4]: 1.78 (0.71-4.45) fold | fold change in adpc expression, geometric mean (95% C.I.) [1, 4]: 1.02 (0.40-2.60) fold | fold change in clpB expression, geometric mean (95% C.I.) [1, 4]: 2.21 (1.53-3.21) fold | fold change in inpA expression, geometric mean (95% C.I.) [1, 4]: 1.39 (0.67-2.90) fold | fold change in phg expression, geometric mean (95% C.I.) [1, 4]: 0.33 (0.21-0.50)^∗ fold
